Measured values reported in patent US20230271956A1, “AMIDE DERIVATIVES” (Merck Patent GmbH, priority 2020, published 2023).

Assays:
CHO-K1 cells = experiment: Micronucleus assay (MNT) in vitro; format: cell-based; parameters: key: A: negative, putative negative (micronuclei detected beyond threshold of 60% cyctotoxicity); B: positive; details: 24 hrs treatment, 0.2 µM to 100 µM
Method: The in vitro MNT assay is performed in CHO-K1 cells due to their stable and welI-characterized karyotype, high sensitivity and suitability for a high content imaging approach. They have a basal spontaneous micronucleus frequency of 3-4%.
24 hrs after plating CHO-K1 cells are treated with test compounds for 24 hrs (in duplicates; fixed concentration ranges from 0.2 µM to 100 µM in 2-fold dilution steps). After a medium change cells are incubated for 24 hrs with Cytochalasin B to block cytokinesis and are then fixed and nuclei / micronuclei visualized with a DNA stain. Images are acquired with the Molecular Devices high content imagers IXU or IXM and are analyzed with the dedicated MetaXpress software micronucleus module. Criteria for scoring of micronuclei (MN) are the following: • diameter of the MN should be less than ⅓ of the main nucleus • MN should be separated from or marginally overlap with main nucleus (= no blebs) • MN should have similar staining as the main nucleus At least 1000 binucleated cells are evaluated per treatment replicate. Mitomycin C is used as reference stimulator of micronucleus formation. Cytotoxicity is evaluated in parallel and defined by comparing total nuclei count in compound-treated samples to neutral control samples treated with vehicle only (1% DMSO) (100% cytotoxicity means all cells are dead or lost).
A test compound is regarded as POSITIVE if generation of micronuclei and exhibition of less than 60% cytotoxicity at the same concentration can be observed.
Compounds are scored only in the soluble concentration range. Experimental data of the compounds shown in Table 1 in the MNT assay are shown in Table 2 below and classified in the following groups: […]

ACSS2 = molecular target: T1, ACSS2 (Homo sapiens, UniProt Q9NR19); experiment: Cellular assay of 14C acetate incorporation into fatty acids (IC50 ACSS2 cellular lipids); format: cell-based; details: HCT-15 cells
T1 construct: endogenous fatty acid synthesis activity in the human HCT-15 cancer cell line; endogenous in cells; host or cells: HCT-15
T1 sequence (Q9NR19 whole entry): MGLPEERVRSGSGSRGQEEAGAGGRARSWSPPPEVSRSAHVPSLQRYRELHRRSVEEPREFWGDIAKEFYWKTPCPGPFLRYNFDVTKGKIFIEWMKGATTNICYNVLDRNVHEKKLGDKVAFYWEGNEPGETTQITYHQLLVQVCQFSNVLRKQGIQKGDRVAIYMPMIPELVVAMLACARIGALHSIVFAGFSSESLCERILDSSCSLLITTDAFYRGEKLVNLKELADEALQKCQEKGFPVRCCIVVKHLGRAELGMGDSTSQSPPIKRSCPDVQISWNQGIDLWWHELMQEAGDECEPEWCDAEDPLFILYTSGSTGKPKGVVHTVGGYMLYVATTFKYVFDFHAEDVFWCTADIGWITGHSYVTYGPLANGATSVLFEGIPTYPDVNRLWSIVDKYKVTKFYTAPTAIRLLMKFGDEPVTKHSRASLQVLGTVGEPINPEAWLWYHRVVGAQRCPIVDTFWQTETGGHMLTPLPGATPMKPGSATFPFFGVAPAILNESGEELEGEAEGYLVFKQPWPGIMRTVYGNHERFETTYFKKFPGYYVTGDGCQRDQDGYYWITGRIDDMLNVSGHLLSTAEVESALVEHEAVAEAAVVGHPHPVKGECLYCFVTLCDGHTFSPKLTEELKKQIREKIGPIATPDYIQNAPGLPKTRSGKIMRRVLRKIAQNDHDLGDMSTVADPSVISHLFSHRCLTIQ
Method: This protocol describes a cellular assay capable to quantify endogenous fatty acid synthesis activity in the human HCT-15 cancer cell line following the incorporation of extracellularly administered radiolabeled ^14C acetate with a scintillation proximity based read out on extracted fatty acids.
HCT-15 cells were grown in RPMI 1640 (Gibco) supplemented with 2 mM glutamine, 1 mM sodium pyruvate 10 mM HEPES and 10 % FCS (heat-inactivated) passaged every 2-3 days to remain a subconfluent, vital culture. A working cell bank was prepared with each aliquot containing 1x10^7 viable cells. After thawing, these cells are dilute immediately 1:20 in pre-warmed (37° C.) culture medium. Cells are collected by centrifugation at 200 x g for 5 min, and the supernatant is replaced by 30 mL of fresh culture medium per aliquot to obtain a cell suspension containing 350000 cells/ml. From this cell suspension 100 µL are dispersed into each well of a collagen coated 96 well plate, (black, clear bottom, PS, F-bottom, Greiner) and culture for 24 h (37° C., 5% CO2). After incubation the culture medium is removed and the wells are washed once with 100 µL PBS++ (supplemented with Mg^2+/ Ca^2+, Gibco) and 50 µL assay medium (RPMI 1640 + 10 mM HEPES) are added to each well. Compounds serial dilutions are prepared from 10 mM stock solutions in DMSO using a fixed dilution factor (usually 1:3). After preparation of the dilution series in DMSO, the individual dilutions are further diluted in the assay medium. This working dilution is prepared such, that the concentration is 7x of the final concentration in the assay. The maximal DMSO concentration in the final assay is 0.1%.
To each well 10 µL compound working dilution or DMSO blank are added and the cells are cultured for 2 h (37° C., 5% CO2). Then 10 µL AlamarBlue reagent (Invitrogen) containing 14 µCi/mL ^14C-acetate (Perkin Elmer) are added to each well (70 µl total volume) and cells are again cultured for 2 h. Cell viability is verified by measuring the AlamarBlue fluorescence (Tecan Safire, ex: 544 nm / em: 590 nm). After incubation the culture medium is removed and the wells are carefully washed once with cold 100 µL PBS++. For cell lysis and fatty acid recovery 50 µl 0.1 M NaOH and 0.1 % Triton-X100 are added per well. The plate is sealed with PlateLoc (clear peelable heat seal, Agilent) and incubate at 70° C. for 16-24 h. After cooling to room temperature, the plates are centrifuged for 1 min at 1000 rpm and the plate seals are removed. For acidification 150 µL 0.1 M HCl are added to each well, mixed and 150 µL of the mixture are transferred into a 96 well FlashPlate (Perkin Elmer). The plates are sealed with TopSeaI-a (Perkin Elmer). To allow for the fatty acid binding to the well surfaces the plates are incubate for 4 h at 70° C. After cooling to room temperature, the plates are centrifuged for 1 min at 1000 rpm and stored for 0.5-2 h at room temperature in the dark. Radioactivity from ^14C incorporation into fatty acids in the wells is measured as CPM count in a MicroBeta scintillation counter (Perkin Elmer).

human rec ACSS2 = molecular target: T2, human rec ACSS2 (Homo sapiens, UniProt Q9NR19); experiment: Biochemical activity ACSS2 assay (AMP-Glo); details: human recombinant ACSS2, AMP-Glo, 180 min at 37° C.
T2 construct: myc (C); purchased Origene
T2 sequence (Q9NR19 whole entry): as above
Summary of the method: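 C-terminal myc-tagged human recombinant ACSS2 (1 nM) reacted with 100 µM ATP, 100 µM CoA and 500 µM acetate (final) in pH 7.5 Hepes buffer for 180 min at 37° C, compound in 10 concentrations from 30 µM. Released AMP detected by AMP-Glo luminescence. IC50 normalised to inhibitor-free reaction and 5 µM reference inhibitor.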

Structure (SMILES)	MNT (CHO-K1 cells)	IC50 (ACSS2)	IC50 (human rec ACSS2)
CCc1c(C(O)(c2ccccc2)c2ccccn2)nc2cc(OC)c(C(=O)Nc3ncn(CC)n3)cn12 (racemic) [Compound 16, 3-Ethyl-2-(hydroxy-phenyl-pyridin-2-yl-methyl)-7-methoxy-imidazo[1,2-a]pyridine-6-carboxylic acid (1-ethyl-1H-[1,2,4]triazol-3-yl)-amide]	A	10 to 100 nM	10 to 100 nM
CCn1cnc(NC(=O)c2cc3c(nc2OC)nc(C(O)(c2ccccc2F)c2ccc(OC(F)F)cc2F)n3CC)n1 (racemic) [Compound 94, 2-{[4-(difluoromethoxy)-2-fluorophenyl](2-fluorophenyl)hydroxymethyl}-1-ethyl-N-(1-ethyl-1H-1,2,4-triazol-3-yl)-5-methoxy-1H-imidazo[4,5-b]pyridine-6-carboxamide]	A	1 to 10 nM	1 to 10 nM
CCn1cnc(NC(=O)c2cc3c(nc2OC)nc(C(O)(c2ccccc2)c2ccccn2)n3CC)n1 (single isomer, unassigned) [Compound 53, 1-ethyl-N-(1-ethyl-1H-1,2,4-triazol-3-yl)-2-[hydroxy(phenyl)(pyridin-2-yl)methyl]-5-methoxy-1H-imidazo[4,5-b]pyridine-6-carboxamide]	in-conclusive	0.01 to 1 nM	1 to 10 nM
CCc1c(C(O)(c2ccccc2)c2ccccc2)nn2cc(Cl)c(C(=O)Nc3ncn(CC)n3)cc12 [Compound 1, 6-Chloro-3-ethyl-2-(hydroxy-diphenylmethyl)-pyrazolo[1,5-a]pyridine-5-carboxylic acid (1-ethyl-1H-[1,2,4]triazol-3-yl)-amide]	A	0.01 to 1 nM	0.01 to 1 nM
CCc1c(C(O)(c2ccccc2F)c2ccccc2F)nn2cc(Cl)c(C(=O)Nc3ncn(CC)n3)cc12 [Compound 2, 2-[Bis-(2-fluoro-phenyl)-hydroxy-methyl]-6-chloro-3-ethyl-pyrazolo[1,5-a]pyridine-5-carboxylic acid (1-ethyl-1H-[1,2,4]triazol-3-yl)-amide]	A	0.01 to 1 nM	1 to 10 nM
CCc1c(C(O)(c2ccccc2F)c2ccccc2F)nn2cc(C)c(C(=O)Nc3ncn(CC)n3)cc12 [Compound 3, 2-[Bis-(2-fluoro-phenyl)-hydroxy-methyl]-3-ethyl-6-methyl-pyrazolo[1,5-a]pyridine-5-carboxylic acid (1-ethyl-1H-[1,2,4]triazol-3-yl)-amide]	A	10 to 100 nM	1 to 10 nM
CCc1c(C(O)(c2ccccc2F)c2ccccc2F)nn2cc(OC)c(C(=O)Nc3cnn(CC)c3)cc12 [Compound 4, 2-[Bis-(2-fluoro-phenyl)-hydroxy-methyl]-3-ethyl-6-methoxy-pyrazolo[1,5-a]pyridine-5-carboxylic acid (1-ethyl-1H-pyrazol-4-yl)-amide]	A	10 to 100 nM	10 to 100 nM
CCc1c(C(O)(c2ccccc2F)c2ccccc2F)nn2ccc(C(=O)Nc3ncn(CC)n3)cc12 [Compound 5, 2-[Bis-(2-fluoro-phenyl)-hydroxy-methyl]-3-ethyl-pyrazolo[1,5-a]pyridine-5-carboxylic acid (1-ethyl-1H-[1,2,4]triazol-3-yl)-amide]	A	0.01 to 1 nM	1 to 10 nM
CCc1c(C(O)(c2ccccc2)c2ccccc2)nn2cc(Cl)c(C(=O)Nc3cnn(CC)c3)cc12 [Compound 6, 6-Chloro-3-ethyl-2-(hydroxy-diphenylmethyl)-pyrazolo[1,5-a]pyridine-5-carboxylic acid (1-ethyl-1H-pyrazol-4-yl)-amide]	A	1 to 10 nM	10 to 100 nM
CCc1c(C(O)(c2ccccc2)c2ccccc2)nn2cc(OC)c(C(=O)Nc3cnn(CC)c3)cc12 [Compound 8, 3-Ethyl-2-(hydroxy-diphenyl-methyl)-6-methoxy-pyrazolo[1,5-a]pyridine-5-carboxylic acid (1-ethyl-1H-pyrazol-4-yl)-amide]	A	10 to 100 nM	10 to 100 nM
CCc1c(C(O)(c2ccccc2)c2ccccc2)nn2ccc(C(=O)Nc3ncn(CC)n3)cc12 [Compound 9, 3-Ethyl-2-(hydroxy-diphenyl-methyl)-pyrazolo[1,5-a]pyridine-5-carboxylic acid (1-ethyl-1H-[1,2,4]triazol-3-yl)-amide]	B	0.01 to 1 nM	1 to 10 nM
CCc1c(C(O)(c2ccccc2)c2ccccc2)nn2ccc(C(=O)Nc3cnn(CC)c3)cc12 [Compound 10, 3-Ethyl-2-(hydroxy-diphenyl-methyl)-pyrazolo[1,5-a]pyridine-5-carboxylic acid (1-ethyl-1H-pyrazol-4-yl)-amide]	A	10 to 100 nM	10 to 100 nM
CCc1c(C(O)(c2ccccc2)c2ccccc2)nn2cc(OC)c(C(=O)Nc3ncn(CC)n3)cc12 [Compound 11, 3-Ethyl-2-(hydroxy-diphenyl-methyl)-6-methoxy-pyrazolo[1,5-a]pyridine-5-carboxylic acid (1-ethyl-1H-[1,2,4]triazol-3-yl)-amide]	A	1 to 10 nM	1 to 10 nM
CCc1c(C(O)(c2ccccc2)c2ccccc2)nc2ccc(C(=O)Nc3cnn(CC)c3)cn12 [Compound 13, 3-Ethyl-2-(hydroxy-diphenyl-methyl)-imidazo[1,2-a]pyridine-6-carboxylic acid (1-ethyl-1H-pyrazol-4-yl)-amide]	A	100 to 10000 nM	10 to 100 nM
CCc1c(C(O)(c2ccccc2)c2ccccc2)nc2cc(Cl)c(C(=O)Nc3ncn(CC)n3)cn12 [Compound 14, 7-Chloro-3-ethyl-2-(hydroxy-diphenylmethyl)-imidazo[1,2-a]pyridine-6-carboxylic acid (1-ethyl-1H-[1,2,4]triazol-3-yl)-amide]	A	1 to 10 nM	1 to 10 nM
CCc1c(C(O)(c2ccccc2)c2ccccc2)nc2cc(Cl)c(C(=O)Nc3cnn(CC)c3)cn12 [Compound 19, 7-Chloro-3-ethyl-2-(hydroxy-diphenylmethyl)-imidazo[1,2-a]pyridine-6-carboxylic acid (1-ethyl-1H-pyrazol-4-yl)-amide]	A	10 to 100 nM	10 to 100 nM
CCc1c(C(O)(c2ccccc2)c2ccccc2)nc2cc(F)c(C(=O)Nc3ncn(CC)n3)cn12 [Compound 20, 3-Ethyl-7-fluoro-2-(hydroxy-diphenylmethyl)-imidazo[1,2-a]pyridine-6-carboxylic acid (1-ethyl-1H-[1,2,4]triazol-3-yl)-amide]	A	1 to 10 nM	1 to 10 nM
